Reference: patent US20210395327A1, “Growth Hormone-Releasing Hormone Antagonists and Uses Thereof” (United States Government As Represented By The Department …, priority 2019, published 2021)
Non-standard residues stand in square brackets, D forms with d. Residues, ends and D or L forms follow the SMILES beside them. *: point of attachment. Phenylacetyl(2,3,4,5,6-F5) = O=C(Cc1c(F)c(F)c(F)c(F)c1F)*; Phe(F5) = N[C@@H](Cc1c(F)c(F)c(F)c(F)c1F)C(=O)O; Phe(4-Cl) = N[C@@H](Cc1ccc(Cl)cc1)C(=O)O; hArg = N=C(N)NCCCC[C@H](N)C(=O)O; 12Ado = NCCCCCCCCCCCC(=O)O; Nle = CCCC[C@H](N)C(=O)O; Abu = CC[C@H](N)C(=O)O

What was measured:
[1] = test system: stomach cancer N87 xenograft; experiment: Xenograft tumor growth in nude mice, N87; assay type: in vivo; conditions: Table 4F, Stomach Ca N87, 4 weeks; for % Inhibition: vs control
[2] = test system: NCI-N87 stomach cancer cells; experiment: In vitro cell viability (CellTiter 96), N87; assay type: cell-based, human; conditions: Table 3B; 5 μM for 72 H; MIA-602 = 1
Summary of the method: (§1)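 Potency is reported as percent inhibition of viability compared with the reference antagonist MIA602, measured with CellTiter 96 aqueous one solution reagent. Serum-starved cells (0.5% FBS, 24 h) were treated for 72 h, mostly at 5 μM, otherwise 2 μM.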

HCC827 lung cancer cells = experiment: In vitro cell viability, HCC827; assay type: cell-based, human; conditions: Table 3B; 5 μM for 72 H; MIA-602 = 1
Summary of the method: as §1

HT-29 colon cancer cells = experiment: In vitro cell viability, HT-29; assay type: cell-based, human; conditions: Table 3B; 5 μM for 72 H; MIA-602 = 1
Protocol: The inhibitory effects of the various synthesized GHRH antagonists were tested in cell proliferation assays in various human cancer cell lines including stomach cancer (KATOIII, N87), colon cancer (HT-29), urothelial cancer (J82, RT4), pancreatic cancer (PANC-1, CFPAC-1), prostatic cancer (PC3), breast cancer (MX-1, HCC1806), ovarian cancer (SK-OV-3, OVCAR-3) and lung cancer (HCC827, H460).
Cell culture. Human cancer cell lines including pancreatic (PANC-1 and CFPAC-1), lung (HCC827 and H460), stomach (NCI-N87 and KATOIII), urothelial (J82, RT4), prostatic (PC3), breast (MX-1 and HCC 1806), colorectal (HT-29), and ovarian (SK-OV-3 and OVCAR-3) were obtained from the American Type Culture Collection (ATCC) and cultured at 37° C. in a humidified 95% air/5% CO2 atmosphere in the medium recommended by ATCC.
In vitro cell viability. Cell viability was analyzed as follows: cancer cells including pancreatic (PANC-1 and CFPAC-1), lung (HCC827 and H460), stomach (NCI-N87 and KATOIII), urothelial (J82, RT4), prostatic (PC3) and breast (MX-1 and HCC 1806), colorectal (HT-29) and ovarian (SK-OV-3 and OVCAR-3) were grown on 96 well plates to ˜60% confluence, the cells were starved for 24 h in culture medium containing 0.5% FBS. Cells were then treated with GHRH antagonists MIA602 AVR compounds at concentrations of 1, 2.5 or 5 μM, or vehicle (0.1% DMSO) in quintuplicates for 72 hours. The medium was replaced every 48 hours. Cell viability was measured using CellTiter 96 aqueous one solution kit (Promega). Inhibitory effects of tested AVR compounds in comparison to that of MIA602 are presented as inhibitory potency.
Inhibitory effects of selected AVR compounds in comparison to that of MIA602 are presented as inhibitory potency (e.g., percentage of inhibition). […] The cell lines tested including lung cancer HCC827 (FIG. 2A), pancreatic cancer CFPAC-1 (FIG. 2B), stomach cancer N87 (FIG. 2C), colon cancer HT-29 (FIG. 2D), breast cancers MX-1 and HCC1806 (FIGS. 2 E, F). Based on the results of cell proliferation assay after cancer cells were treated with antagonist at concentration of 5 μM for 72H, the relative inhibitory potency of AVR antagonists in comparison to MIA-602 is summarized in Table 3 A and B. Over 60 AVR compounds were tested in 12 cancer cell lines.
Based on the results of cell proliferation assay after cancer cells were treated with antagonist at concentration of 5 µM for 72H, * at concentration of 2 µM for 72 H.

[3] = test system: CFPAC-1 pancreatic cancer cells; experiment: In vitro cell viability, CFPAC-1; assay type: cell-based, human; conditions: Table 3B; 5 μM for 72 H; MIA-602 = 1
Summary of the method: as §1

## CCCC[C@H](NC(=O)[C@@H](NC(=O)[C@H](CC(=O)O)NC(=O)[C@H](CCC(N)=O)NC(=O)[C@H](CC(C)C)NC(=O)[C@H](CC(C)C)NC(=O)[C@H](CCCCN)NC(=O)[C@H](CCCNC(=N)N)NC(=O)[C@H](C)NC(=O)[C@H](CO)NC(=O)[C@H](CC(C)C)NC(=O)[C@H](CCC(N)=O)NC(=O)[C@H](CC)NC(=O)[C@H](CC(C)C)NC(=O)[C@@H](NC(=O)[C@H](CCCCN)NC(=O)[C@H](CCCNC(=N)N)NC(=O)[C@H](Cc1c(F)c(F)c(F)c(F)c1F)NC(=O)[C@H](CCCCNC(=N)N)NC(=O)[C@H](C)NC(=O)[C@@H](NC(=O)[C@H](Cc1ccc(Cl)cc1)NC(=O)[C@@H](NC(=O)[C@H](C)NC(=O)[C@H](CC(=O)O)NC(=O)[C@@H](CCCNC(=N)N)NC(=O)[C@H](Cc1ccc(O)cc1)NC(=O)CCCCCCCCCCCNC(=O)Cc1c(F)c(F)c(F)c(F)c1F)[C@@H](C)CC)[C@@H](C)O)C(C)C)[C@@H](C)CC)C(=O)N[C@H](CCCNC(=N)N)C(=O)N[C@@H](CCCCNC(=N)N)C(=O)NCCCCCCCCCCCC(N)=O [AVR-353, 5FPhAC-Ada-Tyr-DArg-Asp-Ala-Ile-Cpa-Thr-Ala-Har-5FPhe-Arg-Lys-Val-Leu-Abu-Gln-Leu-Ser-Ala-Arg-Lys-Leu-Leu-Gln-Asp-Ile-Nle-DArg-Har-Ada-NH2] ({Phenylacetyl(2,3,4,5,6-F5)-12Ado}-Y[dR]DAI[Phe(4-Cl)]TA[hArg][Phe(F5)]RKVL[Abu]QLSARKLLQDI[Nle][dR][hArg][12Ado]-NH2)
[1]; 2 μg/day s.c.
  Tumor Growth %: 433.70%
  % Inhibition: 51.4%
[1]; 5 μg/day s.c.
  Tumor Growth %: 312.20%
  % Inhibition: 65.0%
[2]
  In vitro relative inhibitory potency in comparison to MIA-602, NCI-N87: 3.404
HCC827 lung cancer cells
  In vitro relative inhibitory potency in comparison to MIA-602, HCC827: 1.641
HT-29 colon cancer cells
  In vitro relative inhibitory potency in comparison to MIA-602, HT-29: 1.222
[3]
  In vitro relative inhibitory potency in comparison to MIA-602, CFPAC-1: 2.922
